This note sets out measurements from the METLIN SMRT retention time set (Domingo-Almenara et al. 2019).

This series can be described thus: gradient 5% acetonitrile 3 min, to 50% in 2 min, to 85% in 15 min, held 3 min, 100 µL/min. The settings on record: column: Zorbax Extend-C18 2.1 x 50 mm; eluents: water / acetonitrile, 0.1% formic acid. The procedure, abridged:
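Values are retention times taken from adduct peaks that software picked and an analyst inspected. The pure standards were run as mixtures of ~100 molecules on HPLC linked to a quadrupole time-of-flight mass spectrometer, in positive and negative ionization mode. A Zorbax Extend-C18 column (2.1 × 50 mm, 1.8 μm) was used at 100 μL/min with water and acetonitrile, each including 0.1% formic acid.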
In the case of `Cc1cc(F)cc2c(=O)c3c([nH]c12)CCN(CC(=O)Nc1cc(F)cc(F)c1)C3`, the RP-LC retention time amounted to 635 s.
The figure for `O=C(CCC1CCCCC1)NC1CCN(c2ccc(=O)n(CC3CC3)n2)CC1` is 924 s; for `COc1ccc(C(C)NC(=O)Cn2c(C)cc(-c3nnc(C4CCC4)o3)c2C)cc1` (stereo unspecified) it is 866 s.
The figure for `O=C(c1cc(Cl)ccc1Cl)N(CCc1cccs1)C1CC1` is 1070 s; for `Cc1ccc(N2CCN(C(=O)c3c(C)oc4nc(C)nc(N5CCOCC5)c34)CC2)c(C)c1` it is 1020 s.
The compound `CCOc1ccc2nc(SCC(=O)Nc3nccs3)[nH]c2c1` had an RP-LC retention time of 622 s.
The figure for `O=C(NCc1ccc(Cl)cc1)NCC1(CO)CC1` is 654 s.
The figure for `CCC(C)NC(=O)c1cccc(C)c1` (stereo unspecified) is 847 s; for `Cc1nc(C)c(C(=O)Nc2cc(F)ccc2F)s1` it is 783 s.
`O=C(NC1CC1)[C@@H]1C[C@H](Oc2ccccc2)CN1C(=O)CC1CCCC1` gave an RP-LC retention time of 818 s.
The figure for `Cc1cc(N(C)C)nc(N2CCN(C(=O)c3ccc(C(C)(C)C)cc3)CC2)n1` is 736 s; for `O=C(NCc1ccco1)C1c2ccccc2C(=O)N(Cc2ccccc2)C12CCCC2` (stereo unspecified) it is 943 s.
In turn, `Cn1cc(C2=CCN(S(=O)(=O)c3cccc(Cl)c3)CC2)c2cccnc21` yielded an RP-LC retention time of 1060 s.
The figure for `CCN1C(=O)CCc2cc(NS(=O)(=O)c3ccccc3C(=O)OC)ccc21` is 790 s; for `COc1cccc(C(=O)Nc2nnc(SC)s2)c1` it is 755 s.
In the case of `O=C(c1ccccc1Br)N1CCN(c2cc(-c3cccs3)[nH]n2)CC1`, the RP-LC retention time was 761 s.
The figure for `Cc1ccc(S(=O)(=O)N2CCN(CCc3cn(C)c4ncccc34)CC2)cc1Cl` is 686 s.
The figure for `COCCCn1c(=O)c2ccccc2n(Cc2nc(-c3cccc(C)c3)no2)c1=O` is 855 s; for `O=C(C1CCC1)N1[C@H]2CC[C@@H]1c1cnc(-c3ccccc3)nc1C2` it is 876 s; for `Cc1nccn1C1CN(C(=O)c2ccc3cc[nH]c3c2)C1` it is 582 s.
The figure for `Cc1c(F)cccc1NC(=O)c1cc2n(n1)CCCC2` is 931 s; for `COC[C@@H]1CN(S(=O)(=O)c2cn(C)cn2)C[C@H]1c1ccccn1` it is 567 s; for `Cn1cnnc1C1CCCCN1C(=O)COc1ccc(F)c(F)c1` (stereo unspecified) it is 682 s.
On to `CCOc1ccc2c(n1)CCN(C(=O)Nc1ccccc1OCC)C2`, for which the RP-LC retention time was 973 s.
The figure for `Cc1cc(C)c(C)c(S(=O)(=O)NCC(=O)N2CCN(c3ccccc3)CC2)c1C` is 966 s; for `CC(C(=O)N1CCN(c2ccccn2)CC1)N1Cc2ccccc2C1=O` (stereo unspecified) it is 587 s.
The figure for `CCn1nc(C)c(S(=O)(=O)N2CCN(C(=O)C(C)Oc3cccc(Cl)c3)CC2)c1C` (stereo unspecified) is 850 s.
Turning to `Cn1nnc2ccc(-c3noc(-c4ccccc4)n3)cc21`, the RP-LC retention time is 985 s.
The figure for `CC(=O)c1ccc(NC(=O)Cn2cc(-c3ccccc3)c3ncn(C4CC4)c(=O)c32)cc1` is 846 s.
The figure for `CCCc1c(OCCCOc2ccc(OCC(=O)O)cc2)ccc(C(C)=O)c1O` is 1150 s; for `O=C(C1=CN(c2cc(Cl)cc(Cl)c2)c2cc(F)ccc2S1(=O)=O)N1CCOCC1` it is 875 s; for `CCCn1ccc2sc(C)c(C(=O)NCc3cc(C)ccc3C)c2c1=O` it is 1020 s.
The figure for `CCOc1ccc(S(=O)(=O)N2CC(F)(F)C[C@H]2CN2CCc3ccccc3C2)cc1` is 798 s; for `Cc1ccc(C)c(NC(=O)Cc2nnc(-c3ccc4ncccc4c3)o2)c1` it is 736 s.
In turn, `Cc1ccc(C)c(Sc2cc(N3CCC(C(=O)NCCCOC(C)C)CC3)ncn2)c1` came in with an RP-LC retention time of 823 s.
Compound `Cc1ccc2nc(-c3ccc(C)c(NC(=O)C(C)(C)C)c3)[nH]c2c1` had an RP-LC retention time of 680 s.
`Cc1ccc(CNC(=O)c2cc3sc(C)c(CN4CCOCC4)c3[nH]2)o1` came in with an RP-LC retention time of 656 s.
The figure for `Cc1ccsc1C(=O)NCc1ccc2c(c1)ncn2C` is 597 s; for `Cc1ccc(-n2cc(C(=O)N3CCSCC3)nn2)cc1C` it is 852 s; for `CC(C)CCC(=O)N1CCN(c2nc(CN3CCC(C)CC3)cs2)CC1` it is 671 s.
The figure for `Cc1ccc(-c2noc(-c3ccc(=O)n(CC(=O)OC(C)C)n3)n2)cc1` is 1050 s; for `Cc1ccc(S(=O)(=O)N2CCC(N3CC(F)(F)C[C@H]3CN(C)C)CC2)c(C)c1` it is 715 s.
The figure for `COCC(=O)N(CC(=O)N1CCc2sccc2C1COc1ccc(C)cc1C)CC1CCCO1` (stereo unspecified) is 929 s; for `Cc1ccc(CCNC(=O)Cn2nc(-n3cccc3)c3c(C)cc(C)nc32)cc1` it is 1070 s.
Turning to `O=C(NCc1ccccc1C(F)(F)F)C1CCN(c2cc(N3CCOCC3)ncn2)CC1`, the RP-LC retention time stood at 670 s.
The figure for `Cc1ccc(Cc2c(C)nc3c(C(=O)NCCCN4CCOCC4)cnn3c2C)cc1` is 684 s; for `O=c1c(=O)n(-c2ccccc2)ccn1Cc1nc(-c2ccc3c(c2)OCO3)no1` it is 773 s.
`O=C(NCc1cccnc1)C1(c2ccc(F)cc2)CC1`: the RP-LC retention time worked out at 568 s.
The figure for `CSc1nnc(-c2nn(C)c3c2CN(C(=O)c2ccccc2Br)CC3)n1C` is 717 s; for `COc1ccc(CNC(=O)N(c2ccccc2)c2ccccc2)c(OC)c1` it is 925 s.
The figure for `COc1cccc(-n2c(=O)c3sccc3n(Cc3nc(-c4ccc(F)c(Cl)c4)no3)c2=O)c1` is 1060 s; for `Cc1cc(-c2nnc(C3CC3)o2)c(C)n1CC(=O)NCc1ccc(F)cc1` it is 784 s; for `COc1ccc(NC(=O)C2CCCN(c3nccnc3Sc3ccccc3)C2)cc1OC` (stereo unspecified) it is 969 s.
The figure for `CC1CCN(S(=O)(=O)c2cc(-c3ccc(N4CCCC(C)C4)nn3)cs2)CC1` (stereo unspecified) is 915 s; for `COc1cccc(NC(=O)C2CC(=O)N(c3ccc4c(c3)CCN4C(=O)C3CC3)C2)c1` (stereo unspecified) it is 655 s; for `Cc1ccc(CNC(=O)N2CCC3(CC2)NC(=O)c2ccccc2O3)cc1` it is 757 s.
Compound `CC1Cc2ccccc2N1C(=O)Cc1csc(NC(=O)c2ccc(=O)[nH]c2)n1` (stereo unspecified) registered an RP-LC retention time of 647 s.
The figure for `CC(C)Cc1ccc(S(=O)(=O)N2CCCC(CNC(=O)c3ccccc3)C2)cc1` (stereo unspecified) is 1120 s; for `CCOCCCNC(=O)c1cnn2c(C(F)(F)F)cc(-c3ccccc3)nc12` it is 1010 s; for `CCCSc1nnc(NC(=O)c2c(-c3ccccc3Cl)noc2C)s1` it is 956 s.
The figure for `CCOc1ccc(C2c3[nH]c4ccccc4c3CCN2C(=O)c2ccnn2C)cc1` (stereo unspecified) is 678 s; for `Cc1ccc(-c2nnc(-c3nc(NCc4ccco4)c4ccccc4n3)o2)cc1` it is 995 s.
The figure for `Cn1cc(-c2ccncc2)cc1C(=O)NCc1ccccc1Cl` is 646 s.
The compound `O=C(CN1c2ccc(F)cc2-c2ccccc2S1(=O)=O)NCCN1CCOCC1` had an RP-LC retention time of 624 s.
In turn, `CCOC(=O)N1CCN(Cc2c(O)ccc3ccccc23)CC1` gave an RP-LC retention time of 691 s.
In the case of `COc1cccc(N2C(=O)CC(N3CCC(C(N)=O)CC3)C2=O)c1` (stereo unspecified), the RP-LC retention time was 585 s.
The figure for `O=C(Nc1ccccc1)N1CCC(n2cnc3cc(F)ccc3c2=O)CC1` is 742 s.
On to `Cc1cccc(Sc2nccnc2N2CCC(C(=O)NCCN3CCOCC3)CC2)c1`, for which the RP-LC retention time amounted to 668 s.
Regarding `CC(Cc1ccco1)NC(=O)c1ccc2nc(Cc3ccccc3)oc2c1` (stereo unspecified), the RP-LC retention time was found to be 947 s.
The figure for `Cc1nc(-c2ccc(-c3noc(CNC(=O)c4ccccc4)n3)cc2)cs1` is 902 s.
The figure for `CCc1ccc(CNC(=S)Nc2ccc3nc(N4CCN(C)CC4)cc(C)c3c2)cc1` is 641 s; for `CCS(=O)(=O)NCc1ccc2c(c1)CCN2C(=O)c1ccc(Cl)cc1` it is 829 s; for `O=C1Nc2ccc(Br)cc2/C1=C/C(=O)c1ccccc1` it is 964 s.
The figure for `CC(C)NC(=O)Cn1cccc1-c1nc(-c2ccc3c(c2)OCO3)no1` is 925 s.
For `CCOc1ccccc1N1CCN(c2cc(C(=O)O)c3cc(NC(=O)C4CCC4)ccc3n2)CC1`, the RP-LC retention time is 864 s.
The figure for `CC(NC(=O)c1sc2ncccc2c1-n1cccc1)c1ccc2c(c1)OCCO2` (stereo unspecified) is 1020 s.
The figure for `CC(C)CN1CCn2cc(S(=O)(=O)Nc3ccccc3F)cc2C1=O` is 1320 s; for `Cn1cc(CC(=O)NCc2ccc3c(c2)OCO3)c2cccnc21` it is 648 s.
The figure for `CC(C)NC(=O)c1ccc(OCC2CCN(C(=O)c3ccccc3F)CC2)cc1` is 822 s; for `COC(=O)CNC(=O)N1CCCC1c1cccc(C)c1` (stereo unspecified) it is 734 s; for `CCSc1ccccc1C(=O)N1CCN(c2ccc(-c3ccccn3)nn2)CC1` it is 649 s.
